Measured values: PubChem BioAssay AID2060340 (Molecular Pharmacology Branch, DTP, NCI, 2025)
Several values for one entry are separate records, joined by “and”; a condition that tells them apart may be missing. Equal values may be shown once.

Tested on: 349418-098-R-PDC spheroids, viability, % test/control
Assay: Anticancer human tumor 349418-098-R-PDC patient-derived lung adenocarcinoma cell line growth inhibition [IpAb]
Conditions: spheroids with HUVEC and MSC; for viability, T/C: stronger effect = lower value
Excerpt: Combinatorial screen of targeted agents with ipatasertib and abemaciclib in multi-cell type tumor spheroids
A high-throughput screen of multi-cell type tumor spheroids was designed to identify active combinations of targeted small molecules and ipatasertib or abemaciclib. Complex spheroids include a stromal component modeled by human endothelial cells (HUVEC) and fibroblasts modeled by human mesenchymal stem cells (MSCs). The concentration ranges selected for each drug and investigational agent were based upon clinically achievable concentrations if the clinical Cmax of the agent was known.
Compounds. The drugs and investigational agents: ipatasertib (NSC767898), abemaciclib(NSC768073), selumetinib (NSC741078), trametinib (758246), adavosertib (NSC754352), everolimus (NSC733504), sapanisertib (NSC764658), vemurafenib (NSC761431), venetoclax (NSC766270), copanlisib (NSC809693), apelisib (NSC765974), palbociblib (NSC758247), vemurafenib (NSC761431), dabrafenib (NSC764134), ravoxertinib (NSC781343), BMS-387032 (NSC767048), sotorasib (NSC818433), talazoparib (NSC767125) and afursertib (NSC778305), were obtained from the National Cancer Institute (NCI) Developmental Therapeutics Program Chemical Repository. The FDA-approved anticancer drug set is available from the NCI Developmental Therapeutics Program. […] The stock solutions were prepared in dimethyl sulfoxide (DMSO, Sigma-Aldrich, St. Louis, MO, cat. D2650) at 800-fold the tested concentration and stored at -70 degrees C prior to their use. All drugs and investigational agents were tested over a range starting from a high concentration at or near the clinical Cmax and decreasing in half-log increments. If the clinical Cmax for an agent had not been determined, the highest concentration tested was 10 microM.
NCI60 Cell Culture. NCI60 cell lines were obtained from the NCI Developmental Therapeutics Program Tumor Repository. For each lot of cells, the Repository performed Applied Biosystems AmpFLSTR Identifiler testing with PCR amplification to confirm consistency with the published Identifier STR profile for each cell line. Cells were kept in continuous culture for no more than 20 passages. The optimal seeding densities for each of the cell lines at each time point assessed were determined prior to performing the concentration response studies. Briefly, the NCI60 human tumor lines were grown as monolayers in RPMI 1640 medium supplemented with 10% FBS and 2 mmol/L L-glutamine.
An additional 9 lines were from the NCI60 cell line panel including MDA-MB-231 breast carcinoma, MDA-MB-468 breast carcinoma, MCF7 breast carcinoma, Hs578T breast carcinoma, MALME-3M melanoma, SK-MEL-2 melanoma, SK-OV-3 ovarian carcinoma, DU-145 prostate carcinoma, PC-3 prostate carcinoma, all cell lines along with major genetic alterations are listed on Table 2. Pooled donor human umbilical vein endothelial cells (HUVEC, Lonza, cat. CC-2519) and human mesenchymal stem cells (hMSC, Lonza, cat. PT-2501) were purchased from Lonza (Walkersville, MD).
PDMR cell lines were grown in complete medium (DC medium): Dulbecco's modified Eagle's medium (DMEM)/F12 supplemented with 5% fetal bovine serum (FBS), 2 mM L-glutamine, 100 U/mL penicillin and 100 µg/ml streptomycin, 0.4 µg/ml hydrocortisone, 10 ng/ml epidermal growth factor (EGF) recombinant human protein, 24 µg/mL adenine, and 0.1 mg/mL primocin. During culture from frozen stock vials, PDMR cells were cultured in the same medium containing 10 µM Y-27632 (see Table 3). The PDCs were cultured in complete DMEM/F12 media without 10 microM Y-27632 dihydrochloride for at least two passages prior to the screen. The pooled donor HUVEC and hMSC were cultured in endothelial cell growth medium 2 (PromoCell, Heidelberg, Germany, cat. C-22011) and mesenchymal stem cell growth medium 2 (PromoCell, cat. C-28009), respectively. For all experiments, HUVEC and hMSC were used at passages </=5.
[…]

[1] = curve of first compound, second compound 0.1 µM
[2] = curve of first compound, second compound 0.316 µM
[3] = curve of first compound, second compound 1 µM
[4] = second compound 0.1 µM, first compound 0.0316 µM
[5] = second compound 0.1 µM, first compound 0.1 µM
[6] = second compound 0.1 µM, first compound 0.316 µM
[7] = second compound 0.1 µM, first compound 1 µM
[8] = second compound 0.1 µM, first compound 3.16 µM
[9] = second compound 0.1 µM, first compound 10 µM
[10] = second compound 0.316 µM, first compound 0.0316 µM
[11] = second compound 0.316 µM, first compound 0.1 µM
[12] = second compound 0.316 µM, first compound 0.316 µM
[13] = second compound 0.316 µM, first compound 1 µM
[14] = second compound 0.316 µM, first compound 3.16 µM
[15] = second compound 0.316 µM, first compound 10 µM
[16] = second compound 1 µM, first compound 0.0316 µM
[17] = second compound 1 µM, first compound 0.1 µM
[18] = second compound 1 µM, first compound 0.316 µM
[19] = second compound 1 µM, first compound 1 µM
[20] = second compound 1 µM, first compound 3.16 µM
[21] = second compound 1 µM, first compound 10 µM
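Also: spheroids exposed to compounds for 7 days.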

For `CC(C)(C)c1cnc(CSc2cnc(NC(=O)C3CCNCC3)s2)o1`, the viability, T/C (compound 0.00949 µM) was 105% and 108%, the viability, T/C (compound 0.03 µM) was 90.5% and 85.3% and the viability, T/C (compound 0.0949 µM) was 2.46% and 15.2%. The viability, T/C (compound 0.3 µM) was 2.23% and 2.41%, the viability, T/C (compound 0.949 µM) was 3.07% and 3.11% and the viability, T/C (compound 3 µM) was 2.08% and 2.15%. For the same molecule, the IC50 (curve of compound) was 50.9 nM and 53.6 nM.
With `Cn1nccc1Nc1nccc(-c2ccn(C(CO)c3ccc(Cl)c(F)c3)c(=O)c2)n1` (centres undefined) + CCN1CCN(Cc2ccc(Nc3ncc(F)c(-c4cc(F)c5nc(C)n(C(C)C)c5c4)n3)nc2)CC1 the IC50 (curve of first compound, second compound 0.01 µM) was < 31.6 nM, the IC50 (curve of first compound, second compound 0.0316 µM) was < 31.6 nM and the IC50 [1] was < 31.6 nM. For the same molecule, the IC50 [2] was < 31.6 nM, the IC50 [3] was < 31.6 nM and the viability, T/C (second compound 0.01 µM, first compound 0.0316 µM) was 34.3%. For the same molecule, the viability, T/C (second compound 0.01 µM, first compound 0.1 µM) was 31.1%, the viability, T/C (second compound 0.01 µM, first compound 0.316 µM) was 28.1% and the viability, T/C (second compound 0.01 µM, first compound 1 µM) was 27.3%. For the same molecule, the viability, T/C (second compound 0.01 µM, first compound 3.16 µM) was 23.5%, the viability, T/C (second compound 0.01 µM, first compound 10 µM) was 19.9% and the viability, T/C (second compound 0.0316 µM, first compound 0.0316 µM) was 21.5%. It also gave a viability, T/C (second compound 0.0316 µM, first compound 0.1 µM) of 23%, a viability, T/C (second compound 0.0316 µM, first compound 0.316 µM) of 18.6% and a viability, T/C (second compound 0.0316 µM, first compound 1 µM) of 18%. It also gave a viability, T/C (second compound 0.0316 µM, first compound 3.16 µM) of 17.1%, a viability, T/C (second compound 0.0316 µM, first compound 10 µM) of 16.3% and a viability, T/C [4] of 13.1%. The viability, T/C [5] was 13.4%, the viability, T/C [6] was 13.2% and the viability, T/C [7] was 12.7%. It also gave a viability, T/C [8] of 13.3%, a viability, T/C [9] of 13.5% and a viability, T/C [10] of 11.6%. It also gave a viability, T/C [11] of 11.1%, a viability, T/C [12] of 11.2% and a viability, T/C [13] of 10.8%. It also gave a viability, T/C [14] of 13%, a viability, T/C [15] of 13.2% and a viability, T/C [16] of 12.7%. The viability, T/C [17] was 10.4%, the viability, T/C [18] was 11.1% and the viability, T/C [19] was 11.7%. It also gave a viability, T/C [20] of 12.5% and a viability, T/C [21] of 12.2%.
For `CCCS(=O)(=O)Nc1ccc(F)c(C(=O)c2c[nH]c3ncc(-c4ccc(Cl)cc4)cc23)c1F` + CC(C)NCC(C(=O)N1CCN(c2ncnc3c2C(C)CC3O)CC1)c1ccc(Cl)cc1, the IC50 [1] was 106 nM, the IC50 [2] was < 31.6 nM and the IC50 [3] was < 31.6 nM. The IC50 (curve of first compound, second compound 3.16 µM) was < 31.6 nM, the IC50 (curve of first compound, second compound 10 µM) was < 31.6 nM and the viability, T/C [4] was 56.4%. The viability, T/C [5] was 48.1%, the viability, T/C [6] was 42.4% and the viability, T/C [7] was 38.4%. For the same molecule, the viability, T/C [8] was 33.5%, the viability, T/C [9] was 15.7% and the viability, T/C [10] was 32.9%. The viability, T/C [11] was 29.4%, the viability, T/C [12] was 29.8% and the viability, T/C [13] was 21.7%. It also gave a viability, T/C [14] of 21.4%, a viability, T/C [15] of 11.2% and a viability, T/C [16] of 19.1%. The viability, T/C [17] was 16.6%, the viability, T/C [18] was 11.9% and the viability, T/C [19] was 10.1%. For the same molecule, the viability, T/C [20] was 11%, the viability, T/C [21] was 7.7% and the viability, T/C (second compound 3.16 µM, first compound 0.0316 µM) was 9.81%. For the same molecule, the viability, T/C (second compound 3.16 µM, first compound 0.1 µM) was 7.85%, the viability, T/C (second compound 3.16 µM, first compound 0.316 µM) was 7.36% and the viability, T/C (second compound 3.16 µM, first compound 1 µM) was 6.91%. It also gave a viability, T/C (second compound 3.16 µM, first compound 3.16 µM) of 7.18%, a viability, T/C (second compound 3.16 µM, first compound 10 µM) of 6.15% and a viability, T/C (second compound 10 µM, first compound 0.0316 µM) of 6.76%. It also gave a viability, T/C (second compound 10 µM, first compound 0.1 µM) of 6.33%, a viability, T/C (second compound 10 µM, first compound 0.316 µM) of 5.46% and a viability, T/C (second compound 10 µM, first compound 1 µM) of 5.62%. The viability, T/C (second compound 10 µM, first compound 3.16 µM) was 5.53% and the viability, T/C (second compound 10 µM, first compound 10 µM) was 4.47%.
With `CC(=O)c1c(C)c2cnc(Nc3ccc(N4CCNCC4)cn3)nc2n(C2CCCC2)c1=O` the viability, T/C (compound 0.000949 µM) was 97.3% and 86.4%, the viability, T/C (compound 0.003 µM) was 82.9% and 78.7% and the viability, T/C (compound 0.00949 µM) was 61.7%. The viability, T/C (compound 0.03 µM) was 30.8% and 42.2%, the viability, T/C (compound 0.0949 µM) was 24.5% and 21.1% and the viability, T/C (compound 0.3 µM) was 16.8% and 16.9%. The IC50 (curve of compound) was 14.4 nM and 18.2 nM.
